Data: paper PMC12858405, “Ideal efficacy photoswitching for chromocontrol of TRPC4/5 channel functions in live tissues” (Nature Chemical Biology, 2026)

Target: T1, mouse TRPC5 (Mus musculus, UniProt Q9QX29)
T1 construct: expressed in transfected cells; host or cells: HEK293 (ATCC CRL 1573), stably transfected, tetracycline-induced
T1 sequence (Q9QX29 1-975): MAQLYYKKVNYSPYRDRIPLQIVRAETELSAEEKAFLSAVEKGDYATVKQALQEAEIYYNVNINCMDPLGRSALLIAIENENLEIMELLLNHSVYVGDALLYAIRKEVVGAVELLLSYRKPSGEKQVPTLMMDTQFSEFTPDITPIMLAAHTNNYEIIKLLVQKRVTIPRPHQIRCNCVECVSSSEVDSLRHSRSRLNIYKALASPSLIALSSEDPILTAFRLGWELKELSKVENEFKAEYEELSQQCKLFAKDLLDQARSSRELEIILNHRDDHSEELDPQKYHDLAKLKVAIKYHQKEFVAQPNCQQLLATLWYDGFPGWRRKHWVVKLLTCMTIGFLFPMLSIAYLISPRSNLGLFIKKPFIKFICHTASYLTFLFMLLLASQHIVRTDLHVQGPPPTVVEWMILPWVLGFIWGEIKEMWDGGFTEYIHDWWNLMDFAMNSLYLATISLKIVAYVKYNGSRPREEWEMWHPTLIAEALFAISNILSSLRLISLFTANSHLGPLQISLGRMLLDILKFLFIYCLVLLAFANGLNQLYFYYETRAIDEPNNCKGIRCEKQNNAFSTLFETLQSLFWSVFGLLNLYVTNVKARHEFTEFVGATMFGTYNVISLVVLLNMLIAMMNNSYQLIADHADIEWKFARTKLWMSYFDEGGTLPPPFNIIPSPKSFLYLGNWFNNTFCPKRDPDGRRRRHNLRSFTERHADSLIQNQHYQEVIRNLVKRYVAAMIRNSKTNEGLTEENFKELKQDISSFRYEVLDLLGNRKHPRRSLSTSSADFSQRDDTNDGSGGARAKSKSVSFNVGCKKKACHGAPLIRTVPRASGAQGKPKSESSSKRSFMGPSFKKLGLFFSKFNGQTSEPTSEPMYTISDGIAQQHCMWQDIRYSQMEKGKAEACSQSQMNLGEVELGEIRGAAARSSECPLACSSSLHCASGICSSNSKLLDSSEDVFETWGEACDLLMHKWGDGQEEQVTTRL
Experiment: FLIPR Ca2+ influx assay (Fluo-4) with 365/447 nm photoswitching, HEK293 stably expressing mouse TRPC5
Type: cell-based
Conditions: for Activity on TRPC5 in FLIPR screening: 365/447 nm cycles; for EC50: Z* = mostly-Z PSS under 365 nm LED, Fluo-4-loaded cells, read-out: Agonistic EC50 (365 nm) TRPC5
Description: We initially screened for the photoswitchability of activity in cells using a fluorometric imaging plate reader (FLIPR) calcium flux assay, with HEK293 cells stably expressing mouse TRPC4β or mouse TRPC5. Note, however, that the parallel-throughput FLIPR setup is limited to use fixed light-emitting diodes at 365 nm (good Z) and 447 nm (suboptimal E), which, combined with the slowness of the onset and recovery of the fluorescence readout for calcium, causes the FLIPR results to underestimate the reagents’ true speed, degree and completion of TRPC chromocontrol (shown later). […]
3 Cultured Cell Lines (primarily for Fig. 1 and Fig. 2)
3.1 FLIPR Ca2+ influx assay in cell suspensions.
We initially screened for photoswitchability of activity in cells, using a fluorometric imaging plate reader (FLIPR) calcium flux assay, with human embryonic kidney cell line HEK293 stably transfected to express mouse TRPC4β- or TRPC5-CFP fusion protein (HEKmTRPC4β-CFP / HEKmTRPC5-CFP, HEK293 obtained from ATCC CRL 1573). The FLIPR setup provides high-content data, but it is limited to using LED wavelengths of 365 nm (best-Z) and 447 nm (suboptimal-E), while imaging at 470 nm excitation (Fluo-4 AM as Ca2+ indicator; this imaging light counteracts both PSSs). Therefore, we expected the FLIPR results to under-estimate the true chromocontrol power accessible to the reagents.
Cells were grown to 70%-90% confluency in a 75-cm2 culture flask, trypsinised, washed and resuspended in BSA-containing (0.1%) HBS, and supplemented with 3 µM Fluo-4/AM. Stably TRPC-transfected cells were induced with tetracycline 24 h prior to the experiments.42,43 After incubation at 37°C for 30 min [Fluo-4 loading], cells were again washed, resuspended, and dispensed (40 µl/well) into black pigmented, clear-bottom 384-well plates (Greiner µ-clear). To image the Fluo-4 fluorescence during the application and photoswitching of test compounds, these plates were first mounted to a Tecan Fluent 480 (Tecan, Männedorf, Switzerland) liquid handling device, equipped with a 384-tip multichannel arm and a gripper arm. A custom-made plate-imaging device was used for photoswitching during fluorescence imaging, which features LED-based excitation modules (365 nm and 447 nm used here for photoswitching, and 470 nm used here for Fluo-4 readout) projected onto the bottom of the microwell plate, with a cooled scientific complementary metal oxide sensor (sCMOS) camera (Zyla 5.5, Andor, Belfast, UK) equipped with a Nokton 42.5 mm f/0.95 (Voigtlaender, Fürth, Germany) for detection. The LEDs were controlled with an Arduino device and constant current drivers (1 A for 365 and 470 nm LEDs; 3 A for 447 nm LED); detection was under the control of Micromanager 2.0 software. Compounds were serially diluted and applied to the Fluo-4-loaded cell suspensions inside this custom plate-imaging device, then fluorescence intensities (under 470 nm excitation) were continuously recorded during programmed illuminations e.g. with alternating 365 nm and 447 nm phases.
Concentration-response curves for the Z-isomers (channel activation) were then constructed from the maximal signals during 365 nm phases, after a suitable number of "priming" cycles to allow the system to reach stable performance (Supplementary Fig. 13).
All experiments were conducted as a minimum of 3 independent experiments with each experiment averaging data in technical duplicates. […]
Cellular TRPC5 photoswitching: HEK cell Ca2+ influx photomodulation […]
Supplementary Figure 12. […] All […]
four compounds' profiles are consistent with their being ideal efficacy photoswitches (representative traces from one experiment out of ≥3 independent experiments each run in technical duplicates). […]
log c [nM] log c [nM] log c [nM] log c [nM]
Supplementary Figure 13. Dose-response for Z*-AzPico, Z*-AzPico2, Z*-AzHC, and Z*-AzHC2 on TRPC5 and […]

For `Cn1c(=O)n(CCCO)c(=O)c2c1nc(Oc1ccc(N=Nc3ccccc3)c(Cl)c1)n2Cc1ccc(Cl)cc1` [AzHC], the “Activity on TRPC5 in FLIPR screening” value was “photoswitchable activity” and the EC50 was 6.4 nM.
With `Cn1c(=O)n(CCCO)c(=O)c2c1nc(Oc1ccc(N=Nc3ccccc3)c(OC(F)(F)F)c1)n2Cc1ccc(Cl)cc1` [AzPico] the “Activity on TRPC5 in FLIPR screening” value was “photoswitchable activity” and the EC50 was 4 nM.
`Cn1c(=O)n(CCCO)c(=O)c2c1nc(Oc1ccc(/N=N/c3ccccc3)c(OC(F)(F)F)c1)n2Cc1ccc(Cl)cc1` [E-AzPico] was tested, and the “Effect of E isomer alone on TRPC5” value (12 pM to […], before 365-nm illumination) was “no effect”.
In the case of `Cn1c(=O)n(CCCO)c(=O)c2c1nc(Oc1ccc(/N=N\c3ccccc3)c(Cl)c1)n2Cc1ccc(Cl)cc1` [Z*-AzHC], the EC50 is reported as 6.4 nM.
